Source: US10653780B2, “Amino lipids and methods for the delivery of nucleic acids” (ARBUTUS BIOPHARMA CORPORATION, priority 2008, dated 2020)
Where two headings read alike, the source gives them in different places. Marks after values point to notes of the source that are not given here.

Legend:
[1] = tested on: Factor VII (FVII); conditions: for fold less active than DLinDMA: mouse FVII model; for survival: 15 mg/kg dose, mice
Text: It is well established that in vivo RNAi silencing of specific hepatocyte proteins can be achieved following intravenous (i.v.) administration of siRNA's encapsulated in, or associated with, select nanoparticles designed for intracellular delivery. […] In this Example, rational design in combination with in vivo screening were applied to systematically modify the structure of DLinDMA and identify molecular features that enhance or reduce cationic lipid potency. More than 30 lipids were synthesized and incorporated into nucleic acid-lipid particles, i.e., lipid nanoparticles (LN) encapsulating an siRNA (LN-siRNA) targeting Factor VII (FVII), a blood clotting component synthesized and secreted by hepatocytes that is readily measured in serum. LN-siRNA systems were prepared using the same process, lipid molar ratios and particle size to minimize effects on activity resulting from formulation characteristics other than the cationic lipid. Each formulation was administered as a single bolus injection over a range of doses enabling an estimate of the siRNA dose required to reduce FVII serum protein concentrations by 50% after 24 h (ED50).
FVII activity was evaluated in FVII siRNA-treated animals at 24 hours after intravenous (bolus) injection in C57BL/6 mice or 48 hours after intravenous (bolus) injection in SD rats. Six to 8 week old, female C57Bl/6 mice were obtained from Charles River Laboratories and acclimated for one week prior to use in studies. Animals were held in a pathogen-free environment and all procedures involving animals were performed in accordance with the guidelines established by the Canadian Council on Animal Care.
LN-siRNA systems containing Factor VII siRNA were diluted to the appropriate concentrations in sterile phosphate buffered saline immediately prior to use, and the formulations were administered intravenously via the lateral tail vein in a total volume of 10 ml/kg. After 24 h, animals were anaesthetised with Ketamine/Xylazine and blood was collected by cardiac puncture and processed to serum (Microtainer Serum Separator Tubes; Becton Dickinson, Franklin Lakes, N.J., USA). Serum was tested immediately or stored at −70° C. for later analysis for serum Factor VII levels.
FVII was measured using a commercially available kit (Biophen FVII Kit™; Aniara Corp., Mason, Ohio), following the manufacturer's instructions at a microplate scale. FVII reduction was determined against untreated control animals, and the results were expressed as % Residual FVII. Five dose levels (0.1, 0.3, 0.5, 1.0, and 3.0 mg/kg) were typically used.
Serum Factor VII levels were determined using the colorimetric Biophen VII assay kit (Anaira, USA). Briefly, serially diluted pooled control serum (200%-3.125%) and appropriately diluted plasma samples from treated animals were analyzed using the Biophen VII kit according to manufacturer's instructions in 96-well, flat bottom, non-binding polystyrene assay plates (Corning, Corning, N.Y.) and absorbance at 405 nm was measured. A calibration curve was generated using the serial diluted control serum and used to determine levels of Factor VII in serum from treated animals.
Initial studies were performed in eight to 10 week old, female C57BL/6 mice in two stages. In the first stage, the activity associated with the benchmark lipid DLinDMA was compared to the activity associated with modified forms of DLinDMA.

[2] = Pharmacokinetic and liver analysis of Cy-3 labeled siRNA in LN-siRNA systems; type: in vivo
Text: A fluorescently labeled siRNA (Cy-3 labeled luciferase siRNA, Alnylam Pharmaceuticals) was used to measure the siRNA content in plasma and liver after iv administration of LN-siRNA systems. The measurements were done by first extracting the Cy3-siRNA from the protein-containing biological matrix and then analyzing the amount of Cy-3 label in the extract by fluorescence. Two extraction methods were used, a chloroform/methanol mixture for the plasma samples and a commercial phenol/chloroform mixture (Trizol® reagent) with the tissue samples.
For plasma, blood was collected in EDTA-containing Vacutainer tubes and centrifuged at 1000×g for 10 min at 4-8° C. to isolate the plasma. The plasma was transferred to an eppendorf tube and either assayed immediately or stored in a −30° C. freezer. An aliquot of the plasma (100 μL maximum) was diluted to 500 μL with PBS (145 mM NaCl, 10 mM phosphate, pH 7.5), methanol (1.05 mL and chloroform (0.5 mL) was added, and the sample vortexed to obtain a clear, single phase solution. Water (0.5 mL) and chloroform (0.5 mL) was then added and the resulting emulsion sustained by mixing periodically for a minimum of 3 minutes. The mixture was centrifuged at 3000 rpm for 20 minutes and the top aqueous phase containing the Cy-3-label transferred to a new test tube. The fluorescence of the solution was measured using an SLM Fluorimeter at an excitation wavelength of 550 nm (2 nm bandwidth) and emission wavelength of 600 nm (16 nm bandwidth). A standard curve was generated by spiking aliquots of plasma from untreated animals with the Cy-3-siRNA containing formulation (0 to 15 μg/mL), and the sample processed as indicated above.
For liver, sections (400-500 mg) of tissue from saline-perfused animals was accurately weighed and homogenized in 1 mL of Trizol using Fastprep tubes. An aliquot of the homogenate (typically equivalent to 50 mg of tissue) was transferred to an eppendorf tube and additional Trizol added to 1 mL final. Chloroform (0.2 mL) was added, and the solution was mixed and incubated for 2-3 min before being centrifuged for 15 min at 12,000×g. An aliquot (0.5 mL) of the top Cy-3-containing aqueous phase was diluted with 0.5 mL of PBS and the fluorescence of the sample measured as described above.
The correlation between levels of siRNA delivered to the liver and FVII reduction was determined by encapsulating Cy-3 labeled siRNA in the selection of LN-siRNA systems covering a spectrum of in vivo activities shown in Table 8. Cy-3 fluorescence was measured in plasma and liver tissue 0.5 and 3.0 h post injection.

[3] = Table 4, siRNA dose reducing serum FVII protein by 50% at 24 h, PFV LN-siRNA 40/10/40/10
[4] = Table 8, FVII ED50 of the LN-siRNA system
[5] = Table 5, siRNA dose reducing serum FVII protein by 50% at 24 h, PFV LN-siRNA 40/10/40/10
[6] = Table 3, siRNA dose reducing serum FVII protein by 50% at 24 h, single i.v. bolus, PFV LN-siRNA 40/10/40/10
[7] = Table 7, siRNA dose reducing serum FVII protein by 50% at 24 h, PFV LN-siRNA 40/10/40/10
[8] = siRNA dose reducing serum FVII protein by 50% at 24 h, PFV LN-siRNA 40/10/40/10
[9] = Table 6, siRNA dose reducing serum FVII protein by 50% at 24 h, PFV LN-siRNA 40/10/40/10

Compound: CCCCC/C=C\C/C=C\CCCCCCCCNC(=O)OCC(CN(C)C)OC(=O)NCCCCCCCC/C=C\C/C=C\CCCCC (centres unmarked) [DLin-C-DAP, 1,2-Dilinoleylcarbamoyloxy-3-dimethylaminopropane]
- ED50 [1, 3]: 12 to 25 mg/kg
- ED50 [1, 4]: 12 to 25 mg/kg
- Liver Cy-3 siRNA ([2]; 0.5 h post injection): 28.5 % injected dose
- Plasma Cy-3 siRNA ([2]; 0.5 h post injection): 69.4 % injected dose
- Liver Cy-3 siRNA ([2]; 3.0 h post injection): 13.5 % injected dose
- Plasma Cy-3 siRNA ([2]; 3.0 h post injection): 19.0 % injected dose

Compound: CCCCCCCC/C=C\CCCCCCCC(=O)OCC(C[N+](C)(C)C)OC(=O)CCCCCCC/C=C\CCCCCCCC.[Cl-] (centres unmarked) [DOTAP.Cl, 1,2-Dioleyloxy-3-trimethylaminopropane chloride salt, reference compound]
- ED50 [1, 5]: >25 mg/kg

Compound: CCCC/C=C\CCCCCCCC(=O)OCC(CN(C)C)OC(=O)CCCCCCC/C=C\CCCC (centres unmarked) [DMDAP]
- FVII activity at maximum dose tested ([1]; 10 mg/kg maximum dose): no activity was observed
- ED50 [1, 5]: >10 mg/kg

Compound: CCCCCCCC/C=C\CCCCCCCCOCC(CN(C)C)OCCCCCCCC/C=C\CCCCCCCC (centres unmarked) [DODMA, reference compound]
- ED50 [1, 5]: 2 to 5 mg/kg
- fold less active than DLinDMA [1]: 2 to 5 fold

Compound: 1,2-Dilinoleyloxy-3-(2-N,N-dimethylamino) ethoxypropane [DLin-EG-DMA]
- ED50 [1, 6]: 5 to 12 mg/kg

Compound: CCCCC/C=C\C/C=C\CCCCCCCC(=O)OCC(C[N+](C)(C)C)OC(=O)CCCCCCC/C=C\C/C=C\CCCCC.[Cl-] (centres unmarked) [DLinTAP.Cl]
- ED50 [1, 5]: >25 mg/kg

Compound: CCCCCCCCCCCCCCCCCCC1(CCCCCCCCCCCCCCCCCC)OCC(CN(C)C)O1 (centres unmarked) [DS-K-DMA]
- ED50 [1, 7]: ~8.0 mg/kg
- ED50 [1, 8]: ~8.0 mg/kg

Compound: CCCCCCCC/C=C\CCCCCCCCC1(CCCCCCCC/C=C\CCCCCCCC)OCC(CN(C)C)O1 (centres unmarked) [DO-K-DMA]
- ED50 [1, 7]: ~1.0 mg/kg
- ED50 [1, 8]: ~1.0 mg/kg

Compound: CCCCCCCC/C=C\CCCCCCCCNC(=O)OCC(CN(C)C)OC(=O)NCCCCCCCC/C=C\CCCCCCCC (centres unmarked) [DO-C-DAP]
- FVII activity at maximum dose tested ([1]; 10 mg/kg maximum dose): inactive
- ED50 [1, 5]: >10 mg/kg

Compound: CCCCC/C=C\C/C=C\CCCCCCCCC1(CCCCCCCC/C=C\C/C=C\CCCCC)OCC([N+](C)(C)C)O1.[Cl-] (centres unmarked) [DLin-K-TMA.Cl, 2,2-Dilinoleyl-4-trimethylamino-[1,3]-dioxolane Chloride]
- FVII activity ([1]; 5 mg/kg): No activity observed
- body weight ([1]; 5 mg/kg, data not shown): significant weight loss
- FVII activity ([1]; 5 mg/kg, listed as DLin-K-TMA): No activity was observed
- survival [1]: lethal
- survival ([1]; listed as DLin-K-TMA): did not survive
- ED50 [1, 9]: >5^a mg/kg

Compound: 2,2-dilinoleyl-4-N-morpholino-[1,3]-dioxolane [DLin-K-MA]
- FVII activity at maximum dose tested ([1]; 15 mg/kg maximum dose): inactive
- ED50 [1, 9]: >15 mg/kg
- FVII ED50 ([1]; Table 11): >15 mg/kg

Compound: CCCCC/C=C\C/C=C\CCCCCCCCN(CCCCCCCC/C=C\C/C=C\CCCCC)CC(O)CO (centres unmarked) [DLinAP]
- ED50 [1, 5]: 5 to 12 mg/kg
- ED50 [1, 4]: 5 to 12 mg/kg
- ED50 [1, 8]: 5 to 12 mg/kg

Compound: CCCCC/C=C\C/C=C\CCCCCCCCOCC(COC(=O)CN(C)C)OCCCCCCCC/C=C\C/C=C\CCCCC (centres unmarked) [DLinDAC, 1,2-Dilinoleyloxy-3-(dimethylamino) acetoxypropane]
- ED50 [1, 6]: 5 to 12 mg/kg
- ED50 [1, 4]: 12 to 25 mg/kg

Compound: CCCCC/C=C\C/C=C\CCCCCCCCOCC(CN1CCOCC1)OCCCCCCCC/C=C\C/C=C\CCCCC (centres unmarked) [DLinMA, 1,2-Dilinoleyloxy-3-morpholinopropane]
- ED50 [1, 6]: 12 to 25 mg/kg
- ED50 [1, 4]: 12 to 25 mg/kg
- ED50 [1, 8]: 12 to 25 mg/kg

Compound: 1,2-Dilinoleyloxy-3-trimethylaminopropane chloride [DLinTMA.Cl]
- ED50 [1, 6]: 2 to 5 mg/kg

Compound: CCCCC/C=C\C/C=C\CCCCCCCCSCC(CN(C)C)SCCCCCCCC/C=C\C/C=C\CCCCC (centres unmarked) [DLin-S-DMA, 1 ,2-Dilinoleylthio-3-dimethylaminopropane]
- ED50 [1, 3]: 12 to 25 mg/kg
- ED50 [1, 4]: 12 to 25 mg/kg

Compound: CCCCCCCC/C=C\CCCCCCCC(=O)OCC(CN(C)C)OC(=O)CCCCCCC/C=C\CCCCCCCC (centres unmarked) [DODAP, 1,2-dioleoyl-3-dimethylammonium propane, reference compound]
- ED50 [1, 5]: >25 mg/kg
- fold less active than DLinDMA [1]: more than 25 fold

Compound: CCCCC/C=C\C/C=C\CCCCCCCCC(CCCCCCCC/C=C\C/C=C\CCCCC)OC(=O)CCN(C)C [DLin-M-DMA, Dilinoleylmethyl 3-Dimethylaminopropionate]
- ED50 [1, 7]: ~0.7 mg/kg
- ED50 [1, 8]: ~0.7 mg/kg

Compound: CCCCC/C=C\C/C=C\CCCCCCCCC1(CCCCCCCC/C=C\C/C=C\CCCCC)OCC(CN(C)C)O1 (stereo not drawn) [DLin-K-DMA (+)]
- ED50 [1, 8]: ~0.3 mg/kg

Compound: CCCCC/C=C\C/C=C\CCCCCCCCOCC(CN1CCN(C)CC1)OCCCCCCCC/C=C\C/C=C\CCCCC (centres unmarked) [DLinMPZ, 1,2-Dilinoleyloxy-3-(N-methylpiperazino) propane]
- ED50 [1, 6]: 2 to 5 mg/kg
- ED50 [1, 4]: 2 to 5 mg/kg

Compound: CCCCC/C=C\C/C=C\CCCCCCCCC1(CCCCCCCC/C=C\C/C=C\CCCCC)OC(CN(C)C)C(CN(C)C)O1 (centres unmarked) [DLin-K^2-DMA, 2,2-Dilinoleyl-4,5-bis(dimethylaminomethyl)-[1,3]-dioxolane]
- ED50 [1, 9]: ~0.4 mg/kg
